# Measurements from patent publication US11339130B1 (Blade Therapeutics, Inc., priority 2016, dated 2022).
# Read-outs that look alike come from different tables or passages of the source.
# Legend:
# [1] = molecular target: T1, Human Calpain 1/NS1 (Homo sapiens, UniProt P07384); test: Calpain inhibition continuous fluorescence (FRET) assay, Human Calpain 1/NS1; format: biochemical; conditions: read-out: Human Calpain 1/NS1 IC50
# T1 sequence (P07384 1-714): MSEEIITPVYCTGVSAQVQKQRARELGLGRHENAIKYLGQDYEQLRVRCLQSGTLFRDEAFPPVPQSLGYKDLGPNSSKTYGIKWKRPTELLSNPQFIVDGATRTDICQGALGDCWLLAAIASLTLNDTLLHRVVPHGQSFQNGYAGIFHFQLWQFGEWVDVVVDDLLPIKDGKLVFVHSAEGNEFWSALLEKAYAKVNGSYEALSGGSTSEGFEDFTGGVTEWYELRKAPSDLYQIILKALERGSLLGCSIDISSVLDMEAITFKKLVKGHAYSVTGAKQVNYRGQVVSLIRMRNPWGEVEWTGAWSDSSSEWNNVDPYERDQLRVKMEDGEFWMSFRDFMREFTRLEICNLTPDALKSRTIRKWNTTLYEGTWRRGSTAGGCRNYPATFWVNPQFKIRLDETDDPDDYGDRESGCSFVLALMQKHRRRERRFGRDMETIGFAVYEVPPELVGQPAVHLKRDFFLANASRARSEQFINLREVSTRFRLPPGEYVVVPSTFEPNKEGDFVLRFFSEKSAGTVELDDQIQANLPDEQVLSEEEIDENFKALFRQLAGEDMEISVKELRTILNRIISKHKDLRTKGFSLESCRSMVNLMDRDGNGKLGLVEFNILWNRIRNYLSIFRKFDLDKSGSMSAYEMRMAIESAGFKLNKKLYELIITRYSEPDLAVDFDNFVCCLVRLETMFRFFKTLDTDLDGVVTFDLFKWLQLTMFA
# T1 sequence (P04632 1-268 partner): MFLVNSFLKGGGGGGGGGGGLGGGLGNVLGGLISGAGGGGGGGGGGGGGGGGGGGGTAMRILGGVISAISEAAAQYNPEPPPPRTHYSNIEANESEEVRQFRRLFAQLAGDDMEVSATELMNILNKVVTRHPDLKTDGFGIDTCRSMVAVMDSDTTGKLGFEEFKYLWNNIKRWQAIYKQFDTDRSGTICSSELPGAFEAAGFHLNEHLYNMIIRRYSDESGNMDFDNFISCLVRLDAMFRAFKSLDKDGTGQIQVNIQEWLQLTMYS
# Summary of the method: (§1)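 Fluorescence increase from the cleaved 5-FAM/QXL 520 substrate, read at 490/520 nm, gave activity. Calcium was supplied with the substrate to activate the enzyme in situ after a 25C enzyme-inhibitor preincubation, and IC50s were fit from initial slopes.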
# [2] = molecular target: T2, Human Calpain 2/NS1 (Homo sapiens, UniProt P17655); test: Calpain inhibition continuous fluorescence (FRET) assay, Human Calpain 2/NS1; format: biochemical; conditions: read-out: Human Calpain 2/NS1 IC50
# T2 sequence (P17655 1-700): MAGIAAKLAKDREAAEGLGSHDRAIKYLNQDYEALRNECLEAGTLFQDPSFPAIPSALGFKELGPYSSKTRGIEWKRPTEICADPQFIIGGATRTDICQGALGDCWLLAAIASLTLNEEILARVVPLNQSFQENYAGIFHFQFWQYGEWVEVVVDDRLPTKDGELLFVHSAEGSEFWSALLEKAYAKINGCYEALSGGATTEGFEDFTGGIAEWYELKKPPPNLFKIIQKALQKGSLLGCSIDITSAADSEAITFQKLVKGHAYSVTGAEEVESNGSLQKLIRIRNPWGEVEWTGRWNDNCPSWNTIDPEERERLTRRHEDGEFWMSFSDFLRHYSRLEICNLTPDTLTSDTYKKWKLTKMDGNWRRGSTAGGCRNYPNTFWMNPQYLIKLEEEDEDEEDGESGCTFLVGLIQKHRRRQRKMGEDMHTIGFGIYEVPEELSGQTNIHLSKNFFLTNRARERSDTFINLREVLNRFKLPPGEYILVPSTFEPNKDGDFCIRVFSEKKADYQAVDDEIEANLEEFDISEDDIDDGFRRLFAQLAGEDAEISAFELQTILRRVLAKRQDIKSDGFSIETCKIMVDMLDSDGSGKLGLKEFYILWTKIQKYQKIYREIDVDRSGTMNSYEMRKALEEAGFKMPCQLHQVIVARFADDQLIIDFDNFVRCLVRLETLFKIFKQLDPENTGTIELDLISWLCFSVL
# T2 sequence (P04632 1-268 partner): T1 sequence (P04632 1-268 partner)
# Summary of the method: as §1
# [3] = molecular target: T3, Human Calpain 9/NS1 (Homo sapiens, UniProt O14815); test: Calpain inhibition continuous fluorescence (FRET) assay, Human Calpain 9/NS1; format: biochemical; conditions: read-out: Human Calpain 9/NS1 IC50
# T3 sequence (O14815 1-690): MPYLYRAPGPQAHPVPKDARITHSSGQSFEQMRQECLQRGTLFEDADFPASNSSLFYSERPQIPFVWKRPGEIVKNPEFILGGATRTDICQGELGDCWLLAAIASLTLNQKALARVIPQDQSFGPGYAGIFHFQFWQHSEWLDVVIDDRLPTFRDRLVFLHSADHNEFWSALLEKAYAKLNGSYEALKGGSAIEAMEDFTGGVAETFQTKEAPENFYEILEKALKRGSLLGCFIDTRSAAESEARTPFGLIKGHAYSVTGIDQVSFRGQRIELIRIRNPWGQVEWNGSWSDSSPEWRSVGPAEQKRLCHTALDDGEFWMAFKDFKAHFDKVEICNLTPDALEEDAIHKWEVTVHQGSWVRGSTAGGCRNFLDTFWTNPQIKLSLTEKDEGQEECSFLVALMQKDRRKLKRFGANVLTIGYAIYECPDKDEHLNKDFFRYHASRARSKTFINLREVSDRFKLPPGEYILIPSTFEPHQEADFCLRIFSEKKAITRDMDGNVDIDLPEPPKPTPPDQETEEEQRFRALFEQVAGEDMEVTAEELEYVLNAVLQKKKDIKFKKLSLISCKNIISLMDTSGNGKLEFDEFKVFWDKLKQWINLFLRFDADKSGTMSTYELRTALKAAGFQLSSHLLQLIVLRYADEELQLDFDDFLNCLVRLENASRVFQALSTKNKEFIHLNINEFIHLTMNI
# T3 sequence (P04632 1-268 partner): T1 sequence (P04632 1-268 partner)
# Summary of the method: as §1
# [4] = tested on: Calpain activity in SH-SY5Y cells (SBDP-150); test: SH-SY5Y Spectrin western blot assay (SBDP-150 breakdown product, A23187-induced); format: cell-based; conditions: Homo sapiens, SH-SY5Y cells, read-out: SH-SY5Y Spectrin IC50
# [5] = tested on: Calpain activity in SH-SY5Y cells; test: SH-SY5Y + AMC fluorescence assay (Suc-LLVY-AMC substrate); format: cell-based; conditions: read-out: SH-SY5Y + AMC IC50
# [6] = Column D, A23187-induced SBDP-150
# [7] = A23187-induced SBDP-150, western blot
Compound,IC50 ([1]; Column A) [µM],IC50 ([2]; Column B) [µM],IC50 ([3]; Column C) [µM],"IC50 [4, 6] [µM]",IC50 ([5]; Column E) [µM],IC50 [1] [µM],IC50 [2] [µM],IC50 [3] [µM],"IC50 [4, 7] [µM]",IC50 [5] [µM]
NC(=O)C(=O)C(Cc1ccccc1)NC(=O)c1cc(C(F)(F)F)sc1-c1ccccc1 (centres unmarked) [Compound 286],< 3,< 3,< 3,< 10,> 25,–,–,–,–,–
"NC(=O)C(=O)[C@H](Cc1ccccc1)NC(=O)c1conc1-c1ccccn1 [Compound 288, (S)—N-(4-amino-3,4-dioxo-1-phenylbutan-2-yl)-3-(pyridin-2-yl)isoxazole-4-carboxamide]",< 3,< 3,< 3,> 25,> 25,–,–,–,–,–
"NC(=O)C(=O)[C@H](Cc1ccccc1)NC(=O)c1conc1-c1ccc(F)cc1 [Compound 289, (S)—N-(4-amino-3,4-dioxo-1-phenylbutan-2-yl)-3-(4-fluorophenyl)isoxazole-4-carboxamide]",< 3,< 3,< 3,10 to 25,> 25,–,–,–,–,–
"NC(=O)C(=O)[C@H](Cc1ccccc1)NC(=O)c1nonc1-c1ccccc1 [Compound 293, (S)—N-(4-amino-3,4-dioxo-1-phenylbutan-2-yl)-4-phenyl-1,2,5-oxadiazole-3-carboxamide]",< 3,< 3,< 3,10 to 25,< 10,–,–,–,–,–
"Cc1cc(C(=O)N[C@@H](Cc2ccccc2)C(=O)C(N)=O)n(-c2nc3ccccc3n2C)n1 [Compound 294, (S)—N-(4-amino-3,4-dioxo-1-phenylbutan-2-yl)-3-methyl-1-(1-methyl-1H-benzo[d]imidazol-2-yl)-1H-pyrazole-5-carboxamide]",3 to 10,3 to 10,< 3,10 to 25,> 25,–,–,–,–,–
"COc1ccc2nc(-n3nc(C(=O)N[C@@H](Cc4ccccc4)C(=O)C(N)=O)cc3C)sc2c1 [Compound 296, (S)—N-(4-amino-3,4-dioxo-1-phenylbutan-2-yl)-1-(6-methoxybenzo[d]thiazol-2-yl)-5-methyl-1H-pyrazole-3-carboxamide]",< 3,< 3,< 3,< 10,> 25,–,–,–,–,–
"NC(=O)C(=O)[C@H](Cc1ccccc1)NC(=O)c1ocnc1-c1ccccc1 [Compound 303, (S)—N-(4-amino-3,4-dioxo-1-phenylbutan-2-yl)-4-phenyloxazole-5-carboxamide]",< 3,< 3,< 3,10 to 25,< 10,–,–,–,–,–
"NC(=O)C(=O)[C@H](Cc1ccccc1)NC(=O)c1cn(-c2ccccc2)nc1-c1ccccc1 [Compound 309, (S)—N-(4-amino-3,4-dioxo-1-phenylbutan-2-yl)-1,3-diphenyl-1H-pyrazole-4-carboxamide]",–,–,–,–,–,< 3,< 3,< 3,10 to 25,< 10

# Next, values leading:
IC50 ([1]; Column A) [µM],IC50 ([2]; Column B) [µM],IC50 ([3]; Column C) [µM],"IC50 [4, 6] [µM]",IC50 ([5]; Column E) [µM],IC50 [1] [µM],IC50 [2] [µM],IC50 [3] [µM],"IC50 [4, 7] [µM]",IC50 [5] [µM],Compound
–,–,–,–,–,< 3,< 3,< 3,> 25,> 25,"Cn1cc(C(=O)N[C@@H](Cc2ccccc2)C(=O)C(N)=O)c(-c2cnccn2)n1 [Compound 313, (S)—N-(4-amino-3,4-dioxo-1-phenylbutan-2-yl)-1-methyl-3-(pyrazin-2-yl)-1H-pyrazole-4-carboxamide]"
–,–,–,–,–,< 3,< 3,< 3,10 to 25,> 25,"Cn1cc(C(=O)N[C@H](C=O)Cc2ccccc2)c(-c2ccccc2)n1 [Compound 317, (S)-1-methyl-N-(1-oxo-3-phenylpropan-2-yl)-3-phenyl-1H-pyrazole-4-carboxamide]"
–,–,–,–,–,< 3,< 3,< 3,10 to 25,> 25,"Cc1cc(C(=O)NC(Cc2ccccc2)C(=O)C(N)=O)c(-n2ccc(-c3ccccc3)n2)s1 (centres unmarked) [Compound 320, N-(4-amino-3,4-dioxo-1-phenylbutan-2-yl)-5-methyl-2-(3-phenyl-1H-pyrazol-1-yl)thiophene-3-carboxamide]"
–,–,–,–,–,< 3,< 3,< 3,< 10,> 25,"NC(=O)C(=O)C(Cc1ccccc1)NC(=O)c1nsnc1-c1cccc(F)c1 (centres unmarked) [Compound 321, N-(4-amino-3,4-dioxo-1-phenylbutan-2-yl)-4-(3-fluorophenyl)-1,2,5-thiadiazole-3-carboxamide]"
–,–,–,–,–,< 3,< 3,< 3,10 to 25,> 25,"Cc1nc(-c2ccccc2)c(C(=O)N[C@H](C=O)Cc2ccccc2)o1 [Compound 322, (S)-2-methyl-N-(1-oxo-3-phenylpropan-2-yl)-4-phenyloxazole-5-carboxamide]"
–,–,–,–,–,< 3,< 3,< 3,> 25,> 25,"Cc1cccc(-c2nsnc2C(=O)NC(Cc2ccccc2)C(=O)C(N)=O)c1 (centres unmarked) [Compound 325, N-(4-amino-3,4-dioxo-1-phenylbutan-2-yl)-4-(M-tolyl)-1,2,5-thiadiazole-3-carboxamide]"
–,–,–,–,–,< 3,< 3,< 3,10 to 25,< 10,"Cc1ccccc1-c1nsnc1C(=O)NC(Cc1ccccc1)C(=O)C(N)=O (centres unmarked) [Compound 326, N-(4-amino-3,4-dioxo-1-phenylbutan-2-yl)-4-(o-tolyl)-1,2,5-thiadiazole-3-carboxamide]"
–,–,–,–,–,< 3,< 3,< 3,< 10,< 10,"NC(=O)C(=O)C(Cc1ccccc1)NC(=O)c1nsnc1-c1ccccc1F (centres unmarked) [Compound 327, N-(4-amino-3,4-dioxo-1-phenylbutan-2-yl)-4-(2-fluorophenyl)-1,2,5-thiadiazole-3-carboxamide]"
